{"source": "paper PMC7481357", "about": "“N-terminal Myristoylation Enhanced the Antimicrobial Activity of Antimicrobial Peptide PMAP-36PW” (Frontiers in Cellular and Infection Microbiology, 2020)", "key": {"[1]": {"tested_on": "S. aureus ATCC 25923, S. typhimurium SL 1344, and P. aeruginosa GIM 1.551", "assay": "Biofilm inhibition assay (crystal violet)", "format": "cell-based", "settings": "0.25–128 μg/mL, 24 h at 37°C, crystal violet OD 620 nm; n = 5", "description": "The biofilm-inhibiting ability of Myr-36PW was evaluated against S. aureus ATCC 25923, S. typhimurium SL 1344, and P. aeruginosa GIM 1.551 by using crystal violet dye (Chen et al., [2018]; de Breij et al., [2018]). Overnight cultured strains in TSB medium were diluted to 1 × 10^6 CFU/mL, 100 μL of bacterial suspension with 100 μL of different concentration of peptides (0.25–128 μg/mL) was added into a 96-well plate. Bacterial suspension without peptides was used the negative control. After incubation for 24 h at 37°C, the supernatant weas discarded, and the biofilm was gently washed with PBS, fixed in methanol for 20 min, stained with 0.1% (w/v) crystal violet for 10 min, and finally removed. After washing with PBS, 95% ethanol was added into wells, and the optical density (OD) was measured at 620 nm.\nFigure 6 Biofilm inhibition and eradication of Myr-36PW. (A–C) Inhibition of biofilm formation by Myr-36PW. (D) Eradication of preformed biofilm by Myr-36PW. (E) Killing effect of Myr-36PW against biofilm bacteria. Inhibition rate % = [1 – OD620 nm(peptides)/OD620 nm(bacteria)] × 100%. Biofilm mass % = OD620 nm(peptides)/OD620 nm(control) × 100%. The control group was bacterial culture without peptides. Data represent the mean ± SD (n = 5)."}, "[2]": {"tested_on": "S. aureus ATCC 25923 and P. aeruginosa GIM 1.551", "assay": "Thermal stability testing (boiling, then inhibition zone assay)", "format": "cell-based, Staphylococcus aureus; Pseudomonas aeruginosa", "settings": "boiled 120 min, 10 μg peptide, n = 5", "description": "For thermal stability analysis, the Myr-36PW and peptides were boiled for 10, 20, 30, 40, 50, 60, 90, and 120 min as reported (Ebbensgaard et al., [2015]) with unboiled peptides as controls. Inhibition zone assay was performed against S. aureus ATCC 25923 and P. aeruginosa GIM 1.551. The inhibition zone diameters of peptides (10 μg, 1 μg/μL) were measured after incubation for 18 h at 37°C, and the inhibition curve was drawn.\nFigure 3 Thermal stability determination of Myr-36PW by boiling. Thermal stability test of Myr-36PW and its analogs by boiling in different times (0, 10, 20, 30, 40, 50, 60, 90, and 120 min) via disk diffusion method. (A) (S. aureus ATCC 25923) and (B) (P. aeruginosa GIM 1.551) show the thermal stability curves of PMAP-36, PMAP-36PW, and Myr-36PW. The diameter of the standard disk is 6 mm. Data represent the mean ± SD (n = 5)."}, "[3]": {"tested_on": "P. aeruginosa GIM 1.551", "assay": "Subcutaneous abscess model", "format": "in vivo, BALB/c mice", "settings": "injected 20 μL, 1 μg/μL, once a day for 3 days", "description": "A subcutaneous abscess model in vivo was established as previously reported (Zhao et al., [2019]). The mouse dorsal region with 3.0 cm diameter was treated with hair pusher. A total of 120 mice were randomly divided into two experimental models, one was challenged with S. aureus ATCC 25923 (2.5 × 10^8 CFU/mL, 60 μL), and the other was challenged with P. aeruginosa GIM 1.551 (3.0 × 10^8 CFU/mL, 60 μL). In the S. aureus ATCC 25923 model, 60 mice were divided into six groups of 10 members. The mice with no infection and treatment was used as a blank control, those directly injected with PBS (20 μL) as the negative control group, those injected with benzylpenicillin potassium (20 μL, 1 μg/μL) as the positive control group, and the remaining three groups as the treatment groups injected with Myr-36PW (20 μL, 1 μg/μL), PMAP-36PW (20 μL, 1 μg/μL), and PMAP-36 (20 μL, 1 μg/μL). The procedure in P. aeruginosa GIM 1.551 model is the same as that in S. aureus ATCC 25923 model, except for the use of ampicillin sodium as a positive control. Treatment once a day for 3 days was initiated when the mice developed prominent pustules on their backs. A day after the treatment, the size of the abscess was observed, and its tissues were excised, homogenized, and serially diluted. Bacteria CFU counts were calculated.\nFigure 10 Treatment efficacy of subcutaneous abscess by Myr-36PW in vivo. Mice were injected with S. aureus ATCC 25923 or P. aeruginosa GIM 1.551 to develop a subcutaneous abscess before treatment. (A) Changes in the abscess area of mice after 3 days treatment. (B,C) Quantitative analysis of bacterial CFU in abscess area that received 3 days treatment under various experimental conditions. The number of CFU in each treatment group was normalized by using the CFU of the experimental group divided by the CFU of the PBS group (100%). BP is benzylpenicillin potassium, AS is ampicillin sodium. Data represent the mean ± SD of five individual experiments. *P < 0.05 and **P < 0.01, compared with PBS. ^#P < 0.05 and ^##P < 0.01, compared with PMAP-36PW."}, "[4]": {"tested_on": "S. aureus ATCC 25923", "format": "cell-based, Staphylococcus aureus", "settings": "ATCC 25923, 1 h", "description": "The effects of abiotic factors on the antibacterial activity of Myr-36PW were investigated by MIC assay (Xi et al., [2013]; Zhong et al., [2019]). S. aureus ATCC 25923 and P. aeruginosa GIM 1.551 overnight cultures were diluted to 1 × 10^6 CFU/mL, and the MICs of peptides in MHB with different concentration of physiological salts (150 mM NaCL, 2 mM CaCL2) were determined. And after the peptides incubated in 10% mice serum for 1 h at 37°C, MICs of peptides against S. aureus ATCC 25923 and P. aeruginosa GIM 1.551 were determined. The MICs in MHB in the absence of physiological salts and serum were used as the control group.\nSalt and serum stability in vitro were indicated by MIC assay. The concentrations of NaCl and CaCl2 were physiological concentration. 10% mice serum was inactivated by heat treatment for 15 min at 60 ℃。The control group was measured in the absence of physiological salts or serum in MHB."}}, "note": "“Also recorded” adds a separate entry of the source. Residues, ends and D or L forms follow the SMILES beside them. *: point of attachment. Myristoyl = CCCCCCCCCCCCCC(=O)*"}
{"compound": "CCCCCCCCCCCCCC(=O)NCC(=O)NCC(=O)N[C@@H](CCCNC(=N)N)C(=O)N[C@@H](Cc1ccccc1)C(=O)N[C@@H](CCCNC(=N)N)C(=O)N[C@@H](CCCNC(=N)N)C(=O)N[C@@H](CC(C)C)C(=O)N[C@@H](CCCNC(=N)N)C(=O)N[C@@H](CCCCN)C(=O)N[C@@H](CCCCN)C(=O)N[C@H](C(=O)N[C@@H](CCCNC(=N)N)C(=O)N[C@@H](CCCCN)C(=O)N[C@@H](CCCNC(=N)N)C(=O)N[C@@H](CC(C)C)C(=O)N[C@@H](CCCCN)C(=O)N[C@@H](CCCCN)C(=O)N[C@H](C(=O)NCC(=O)N[C@@H](CCCCN)C(=O)N[C@H](C(=O)N[C@@H](CC(C)C)C(=O)N[C@@H](CCCCN)C(=O)N[C@@H](Cc1c[nH]c2ccccc12)C(=O)N[C@H](C(=O)N[C@@H](Cc1c[nH]c2ccccc12)C(=O)N[C@@H](Cc1c[nH]c2ccccc12)C(=O)N[C@H](C(=O)N[C@H](C(=O)NCC(=O)N[C@@H](CO)C(=O)N[C@H](C(=O)N1CCC[C@H]1C(=O)N[C@@H](CC(C)C)C(=O)NCC(=O)N[C@@H](CS)C(=O)NCC(=O)O)[C@@H](C)CC)C(C)C)[C@@H](C)CC)[C@@H](C)CC)C(C)C)[C@@H](C)CC)[C@@H](C)O", "note": "[Myr-36PW] (Myristoyl-GGRFRRLRKKTRKRLKKIGKVLKWIWWIVGSIPLGCG-OH; C-terminus assumed)", "values": [{"measurement": "Inhibition of biofilm formation", "setting": "[1]", "value": "biofilm inhibition against the tested bacteria in a concentration-dependent manner"}, {"measurement": "Antimicrobial activity after boiling (thermal stability)", "setting": "[2]", "value": "retaining high bacterial inhibition"}, {"measurement": "Abscess area", "setting": "[3]", "value": "significantly reduced the abscess area and effectively suppressed its growth"}, {"measurement": "Bacterial CFU in abscess area", "setting": "[3]; vs PMAP-36PW: Myr-36PW P < 0.05, ampicillin sodium P < 0.01, n = 5", "value": "significant difference compared with that of PBS group (P < 0.01); also recorded: lower than that of PMAP-36PW group"}, {"measurement": "MICs, Control", "setting": "[4]", "value": 0.0156, "unit": "µg/mL"}, {"measurement": "MICs, Serum", "setting": "[4]", "value": 0.0313, "unit": "µg/mL"}]}
